Data published in US8436040B2, “Method of treating conditions involving PPAR-receptors with indole compounds” (Laboratoires Fournier S.A., priority 2005, dated 2013).

Experiments:
[1] = test system: db/db mice; assay: db/db mouse model: serum glucose, triglyceride and cholesterol levels; format: in vivo; conditions: serum 4 hours after last gavage
Experimental: The test protocol is as follows:
Homozygous C57BL/Ks-db male mice (db/db mice), 11 to 13 weeks old at the start of the studies, are divided up into groups of 9-10 animals. The products are administered orally once a day for 5 days. One group of mice receives the vehicle only (0.5 or 1% methyl cellulose solution). A blood sample is taken from the retro-orbital sinus before treatment and 4 hours after the last gavage.
After centrifugation, the serum is collected and the cholesterol, triglyceride and glucose levels are measured using a multiparameter analyzer with commercial kits.
The results are expressed in % variation on the final day relative to the control group.

[2] = test system: C2C12 cells; assay: β-oxidation of 1-C14 oleate on C2C12 cells differentiated in myotubes; format: cell-based, murine; conditions: 100 μM, 48 hours incubation
Experimental: A second series of tests was performed with the compounds according to the invention in order to confirm the activity deduced from their affinity for the aforementioned receptors. This test consists in measuring the β-oxidation on HuH7 cells of human hepatic origin and C2C12 cells of murine muscular origin after differentiation in myotubes.
The cells are inoculated into Petri dishes containing a central well. The products are added to the culture medium and incubated for 48 hours at different concentrations. After incubation for 22 hours, C14-radiolabeled oleate (1-C14 oleate) is added to the culture medium. The β-oxidation reaction is stopped 2 hours later by the addition of 40% perchloric acid.
The CO2 liberated during the oxidation of the oleate is trapped with KOH solution and then counted.
Each test is performed three times.
The results are expressed in % variation relative to the control dishes (dishes without compounds).

[3] = 30 mg/kg orally once a day for 5 days
[4] = 100 mg/kg orally once a day for 5 days
[5] = 3 mg/kg orally once a day for 5 days

Row | Compound | Cholesterol, % variation on the final day relative to the control group [1, 3] | Glucose, % variation on the final day relative to the control group [1, 3] [%] | Triglycerides, % variation on the final day relative to the control group [1, 3] [%] | further results
1 | O=C(O)CCc1cc2cc(Cl)ccc2n1S(=O)(=O)c1ccccc1 [Example 2, 5-Chloro-1-(phenylsulfonyl)-1H-indole-2-propanoic acid] | +30% | 0 | −7 | 
2 | O=C(O)CCc1cc2cc(C(F)(F)F)ccc2n1S(=O)(=O)c1ccccc1 [Example 4, 1-(Phenylsulfonyl)-5-(trifluoromethyl)-1H-indole-2-propanoic acid] | +41% | −30 | −12 | β-oxidation, % variation relative to the control dishes [2]: 82%
3 | O=C(O)CCc1cc2cc(Cl)ccc2n1S(=O)(=O)c1ccc2ncsc2c1 [Example 155, 1-[(6-Benzothiazolyl)sulfonyl]-5-chloro-1H-indole-2-propanoic acid] | +38% | −35 | −41 | 
4 | O=C(O)CCCc1cc2cc(Cl)ccc2n1S(=O)(=O)c1ccc2c(c1)OCO2 [Example 163, 1-[(1,3-Benzodioxol-5-yl)sulfonyl]-5-chloro-1H-indole-2-butanoic acid] | −15% | −38 | −35 | 
5 | CC(OCc1cc2cc(Cl)ccc2n1S(=O)(=O)c1ccccc1)C(=O)O (stereo not shown) [Example 202, 2-[[5-Chloro-1-(phenylsulfonyl)-1H-indol-2-yl]methoxy]propanoic acid] | +25% | −52 | −48 | 
6 | CC(C)OC(=O)C(C)(C)Oc1ccc(C(=O)c2ccc(Cl)cc2)cc1 [Fenofibrate] |  |  |  | Cholesterol, % variation on the final day relative to the control group [1, 4]: +32%; Glucose, % variation on the final day relative to the control group [1, 4]: −9%; Triglycerides, % variation on the final day relative to the control group [1, 4]: −7%
7 | CN(CCOc1ccc(CC2SC(=O)NC2=O)cc1)c1ccccn1 (stereo not shown) [Rosiglitazone, rosiglitazone, reference compound] |  |  |  | Cholesterol, % variation on the final day relative to the control group [1, 5]: −30%; Glucose, % variation on the final day relative to the control group [1, 5]: −41%; Triglycerides, % variation on the final day relative to the control group [1, 5]: −52%
